Measurements: patent US6855802B1, “Mutated peptide compounds, derived from hsp70, useful in cancer immunotherapy” (Institut Gustave Roussy, priority 1998, dated 2005)
Values belong to the molecule of their own block, whether it stands above or below them.

How the values were obtained:
[1] = test system: autologous cell line transformed with EBV / 11C2 CTL; assay: Peptide recognition assay: chromium release, lysis by 11C2 CTL of peptide-incubated autologous EBV-transformed cells; assay type: cell-based, human; conditions: for EC50: 11C2 CTL, E/T 31/1, 51Cr-labeled autologous EBV-transformed cells incubated 1 hour with peptide, 4 h release, read-out: maximum half-lysis (peptide concentration); for recognition by 11C2 CTL: peptides carrying the HLA-A*0201 binding motif, 18 peptides assayed
Method: 2000 cells transformed with EBV and labeled with ^51Cr were incubated for 1 hour in the presence of the indicated hsp70-2 peptides (SEQ ID NOS. 2, 7, 1, and 8) at multiple concentrations. The 11C2 CTL was then added at an effector/target ratio (E/T) of 31/1. Chromium release was measured 4 hours later. The asterisks indicate the mutated amino acids.
The cytotoxicity assays were carried out using the standard 4-hour chromium release assay, as described above, Angevin et al, (1997). In summary, 2×10^3 51Cr-labeled target cells were incubated for 4 hours at 37° C., with the effector cells at various E/T ratios, in a final volume of 200 μl. With regard to lysis inhibition by the mAbs, the target cells were preincubated for two hours in the presence of saturating concentrations of mAb, before adding the effector cells. At the end of the incubation, 40 μl of supernatant were transferred to Lumaplate 96 solid scintillation plates (Packard Instruments, Meriden, Conn.), were dried overnight and counted in a beta-radioactivity counter (Packard Instruments).
In the screening assay, the peptides used were synthesized by “PepSet technology” (Chiron Technologies, Suresnes, France). For the functional assays, the peptides were synthesized on solid phase using F-moc (temporary NH2-terminal protection), and were purified by preparative HPLC. […] The lyophilized peptides were dissolved in […] in water, and conserved at −20° C. The peptides were used in a chromium release assay. 2000 autologous cells transformed with EBV, and labeled with ^51Cr, were incubated for 1 hour at 37° C. on 96-well plates, with diverse concentrations of peptides, before adding 11C2 CTLs.

[2] = test system: CD8+ cells from HLA-A2-positive donors; assay: Elispot-IFNγ assay with CD8+ cells and peptide-loaded T2 cells; assay type: cell-based, human; conditions: interferon gamma secretion, no in vitro culturing or cytokines
[3] = molecular target: T1, HLA-A2 (HLA-A*0201) (human); assay: T2 cell HLA-A2 up-regulation, flow cytometry with mAb MA2.1
T1 construct: whole, on cells; also called HLA-A2.1
Method: T2 cells were incubated at 26° C. for 16 hours in serum-free medium, with or without peptide at a concentration of 20 μm. Next, the peptides (SEQ ID NOS. 2, 7, 1, and 8) were again added, and the cells were incubated at 37° C. […] The amino acid sequences of the peptides are represented. The mutated amino acid is represented by an asterisk.

Molecule: SLFEGIDIYT [SEQ ID NO: 2, mutated hsp70-2 decapeptide 286-295 carrying the mutant isoleucine residue at position 8]
EC50 [1]: 0.05 nM
recognition by 11C2 CTL [1]: recognized
induction of human CD8 lymphocytes from healthy HLA-A2+ individuals [2]: possible to induce

Molecule: wild-type nonapeptide 286-294: wild-type hsp70-2 nonapeptide, amino acids 286-294 (SLFEGIDFY; listed as Homo sapiens) [reference compound]
recognition by 11C2 CTL [1]: not

Molecule: SLFEGIDIY [SEQ ID NO: 1, mutated hsp70-2 nonapeptide, amino acids 286 to 294, isoleucine at position 293]
EC50 [1]: 500 nM
recognition by 11C2 CTL [1]: recognized
induction of human CD8 lymphocytes from healthy HLA-A2+ individuals [2]: possible to induce

Molecule: SLFEGIDFYT [SEQ ID NO: 7, wild-type hsp70-2 decapeptide 286-295, reference compound]
EC50 [1]: 50 nM
recognition by 11C2 CTL [1]: recognizes

binding result [3]: binds
Molecule: SLFEGIDFY (2, 7, 1 and 8) [wild-type hsp70-2 nonapeptide 286-294]

binding result [3]: binds
B1: mutated hsp70-2 nonapeptide 286-294 SLFEGIDIY (peptide)
peptide: SLFEGIDIY
notes: Synthetic peptide; isoleucine at hsp70 position 293

binding result [3]: binds
Molecule: SLFEGIDFYT (Synthetic peptide) [wild-type hsp70-2 decapeptide 286-295 SLFEGIDFYT]

binding result [3]: binds
B2: mutated hsp70-2 decapeptide 286-295 SLFEGIDIYT (peptide)
peptide: SLFEGIDIYT
notes: Synthetic peptide; carries the tumour mutation (isoleucine at hsp70 position 293, position 8 of the peptide)
